# Source: US8192962B2, “Processes for detecting toxic substances” (Daikin Industries, Ltd., priority 2001, dated 2012)
# Tested on: Mitochondria-located protein genes
# Test: DNA chip mRNA expression in yeast, mitochondria-located protein genes (Table 2)
# Type: cell-based, Saccharomyces cerevisiae S288C
# Conditions: cells incubated two hours with the chemical substance
# Summary of the method: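 Untreated cultures served as reference for log-phase S288C yeast given a growth-inhibiting, non-lethal toxicant dose for 2 h at 25° C. in YPD. Gene expression was measured on a whole-genome DNA chip from Cy3/Cy5-labeled cDNA.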
smiles,measurement,setting,value
"Cl[C@H]1[C@H](Cl)[C@@H](Cl)[C@@H](Cl)[C@H](Cl)[C@H]1Cl [(7), γ-hexachlorocyclohexane]",The level of expressed mRNA in the presence of chemical substance/The level of expressed mRNA in the absence of chemical substance,yeast gene YAL039C,1.0
same,The level of expressed mRNA in the presence of chemical substance/The level of expressed mRNA in the absence of chemical substance,yeast gene YBL022C,1.0
same,The level of expressed mRNA in the presence of chemical substance/The level of expressed mRNA in the absence of chemical substance,yeast gene YBL030C,0.9
same,The level of expressed mRNA in the presence of chemical substance/The level of expressed mRNA in the absence of chemical substance,yeast gene YBL038W,8.0
same,The level of expressed mRNA in the presence of chemical substance/The level of expressed mRNA in the absence of chemical substance,yeast gene YBL099W,0.9
same,The level of expressed mRNA in the presence of chemical substance/The level of expressed mRNA in the absence of chemical substance,yeast gene YBR003W,1.1
same,The level of expressed mRNA in the presence of chemical substance/The level of expressed mRNA in the absence of chemical substance,yeast gene YBR044C,1.5
same,The level of expressed mRNA in the presence of chemical substance/The level of expressed mRNA in the absence of chemical substance,yeast gene YBR091C,1.0
same,The level of expressed mRNA in the presence of chemical substance/The level of expressed mRNA in the absence of chemical substance,yeast gene YBR122C,2.0
same,The level of expressed mRNA in the presence of chemical substance/The level of expressed mRNA in the absence of chemical substance,yeast gene YBR185C,1.2
same,The level of expressed mRNA in the presence of chemical substance/The level of expressed mRNA in the absence of chemical substance,yeast gene YBR221C,1.5
same,The level of expressed mRNA in the presence of chemical substance/The level of expressed mRNA in the absence of chemical substance,yeast gene YBR251W,1.4
same,The level of expressed mRNA in the presence of chemical substance/The level of expressed mRNA in the absence of chemical substance,yeast gene YBR282W,1.2
same,The level of expressed mRNA in the presence of chemical substance/The level of expressed mRNA in the absence of chemical substance,yeast gene YCL057W,1.4
same,The level of expressed mRNA in the presence of chemical substance/The level of expressed mRNA in the absence of chemical substance,yeast gene YCR046C,1.2
same,The level of expressed mRNA in the presence of chemical substance/The level of expressed mRNA in the absence of chemical substance,yeast gene YCR083W,1.8
same,The level of expressed mRNA in the presence of chemical substance/The level of expressed mRNA in the absence of chemical substance,yeast gene YDL067C,0.8
same,The level of expressed mRNA in the presence of chemical substance/The level of expressed mRNA in the absence of chemical substance,yeast gene YDL181W,1.1
same,The level of expressed mRNA in the presence of chemical substance/The level of expressed mRNA in the absence of chemical substance,yeast gene YDL198C,1.0
same,The level of expressed mRNA in the presence of chemical substance/The level of expressed mRNA in the absence of chemical substance,yeast gene YDR079W,1.3
same,The level of expressed mRNA in the presence of chemical substance/The level of expressed mRNA in the absence of chemical substance,yeast gene YDR178W,0.6
same,The level of expressed mRNA in the presence of chemical substance/The level of expressed mRNA in the absence of chemical substance,yeast gene YDR231C,1.7
same,The level of expressed mRNA in the presence of chemical substance/The level of expressed mRNA in the absence of chemical substance,yeast gene YDR258C,3.9
same,The level of expressed mRNA in the presence of chemical substance/The level of expressed mRNA in the absence of chemical substance,yeast gene YDR298C,1.0
same,The level of expressed mRNA in the presence of chemical substance/The level of expressed mRNA in the absence of chemical substance,yeast gene YDR347W,1.2
same,The level of expressed mRNA in the presence of chemical substance/The level of expressed mRNA in the absence of chemical substance,yeast gene YDR377W,1.1
same,The level of expressed mRNA in the presence of chemical substance/The level of expressed mRNA in the absence of chemical substance,yeast gene YDR529C,0.5
same,The level of expressed mRNA in the presence of chemical substance/The level of expressed mRNA in the absence of chemical substance,yeast gene YEL024W,0.7
same,The level of expressed mRNA in the presence of chemical substance/The level of expressed mRNA in the absence of chemical substance,yeast gene YEL039C,0.6
same,The level of expressed mRNA in the presence of chemical substance/The level of expressed mRNA in the absence of chemical substance,yeast gene YER178W,1.6
same,The level of expressed mRNA in the presence of chemical substance/The level of expressed mRNA in the absence of chemical substance,yeast gene YFL016C,1.4
same,The level of expressed mRNA in the presence of chemical substance/The level of expressed mRNA in the absence of chemical substance,yeast gene YGL018C,1.1
same,The level of expressed mRNA in the presence of chemical substance/The level of expressed mRNA in the absence of chemical substance,yeast gene YGL187C,0.6
same,The level of expressed mRNA in the presence of chemical substance/The level of expressed mRNA in the absence of chemical substance,yeast gene YGL191W,1.0
same,The level of expressed mRNA in the presence of chemical substance/The level of expressed mRNA in the absence of chemical substance,yeast gene YGR008C,3.7
same,The level of expressed mRNA in the presence of chemical substance/The level of expressed mRNA in the absence of chemical substance,yeast gene YGR028W,2.1
same,The level of expressed mRNA in the presence of chemical substance/The level of expressed mRNA in the absence of chemical substance,yeast gene YGR062C,1.3
same,The level of expressed mRNA in the presence of chemical substance/The level of expressed mRNA in the absence of chemical substance,yeast gene YGR076C,1.7
same,The level of expressed mRNA in the presence of chemical substance/The level of expressed mRNA in the absence of chemical substance,yeast gene YGR082W,0.9
same,The level of expressed mRNA in the presence of chemical substance/The level of expressed mRNA in the absence of chemical substance,yeast gene YGR174C,1.0
same,The level of expressed mRNA in the presence of chemical substance/The level of expressed mRNA in the absence of chemical substance,yeast gene YGR244C,3.9
same,The level of expressed mRNA in the presence of chemical substance/The level of expressed mRNA in the absence of chemical substance,yeast gene YHR008C,0.7
same,The level of expressed mRNA in the presence of chemical substance/The level of expressed mRNA in the absence of chemical substance,yeast gene YIL155C,2.2
same,The level of expressed mRNA in the presence of chemical substance/The level of expressed mRNA in the absence of chemical substance,yeast gene YJL096W,1.7
same,The level of expressed mRNA in the presence of chemical substance/The level of expressed mRNA in the absence of chemical substance,yeast gene YJL102W,0.6
same,The level of expressed mRNA in the presence of chemical substance/The level of expressed mRNA in the absence of chemical substance,yeast gene YJL133W,0.5
same,The level of expressed mRNA in the presence of chemical substance/The level of expressed mRNA in the absence of chemical substance,yeast gene YJL166W,0.8
same,The level of expressed mRNA in the presence of chemical substance/The level of expressed mRNA in the absence of chemical substance,yeast gene YJL180C,1.6
same,The level of expressed mRNA in the presence of chemical substance/The level of expressed mRNA in the absence of chemical substance,yeast gene YJR045C,1.0
same,The level of expressed mRNA in the presence of chemical substance/The level of expressed mRNA in the absence of chemical substance,yeast gene YJR077C,0.7
